Measured values reported in US6887896B1, “7-[(7-Alkoxy)-chrom-3-en-6-yl]-heptatrienoic acid and 7-[(3-alkoxy)-5,6-dihydronaphthalen-2-yl]-heptatrienoic acid derivatives having serum glucose reducing activity” (Allergan, Inc., priority 2003, dated 2005).

Columns and labels:
RXRα [1] = target: T1, RXRα (Homo sapiens, UniProt P19793); assay: ligand binding assay, RXRα; settings: read-out: RXR Bind Ki α
T1 construct: expressed in transfected cells
T1 sequence (P19793 1-462): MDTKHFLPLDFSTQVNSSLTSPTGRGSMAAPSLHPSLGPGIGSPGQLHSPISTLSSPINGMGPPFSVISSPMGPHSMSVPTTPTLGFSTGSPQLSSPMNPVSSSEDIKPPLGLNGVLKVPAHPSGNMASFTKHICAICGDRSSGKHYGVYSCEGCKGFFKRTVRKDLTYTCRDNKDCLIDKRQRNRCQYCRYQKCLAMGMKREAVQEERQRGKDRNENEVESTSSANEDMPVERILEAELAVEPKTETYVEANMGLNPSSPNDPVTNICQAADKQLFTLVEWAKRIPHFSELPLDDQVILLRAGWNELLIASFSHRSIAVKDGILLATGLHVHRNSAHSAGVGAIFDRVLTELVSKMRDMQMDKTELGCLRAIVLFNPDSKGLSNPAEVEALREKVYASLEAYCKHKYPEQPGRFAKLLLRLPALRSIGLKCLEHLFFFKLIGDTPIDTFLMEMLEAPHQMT
Source text: (§1) Specifically, one such assay is a chimeric receptor transactivation assay which tests for agonist-like activity in the R RAPE and RAR7 receptor subtypes, and which is based on work published by Feigner, P. L. and Holm, M (1989) Focus, 112 is described in detail in U.S. Pat. No. 5,455,265. The specification of U.S. Pat. No. 5,455,265 is hereby expressly incorporated by reference. A holoreceptor transactivation assay and a ligand binding assay which measure the antagonist/agonist like activity of the compounds of the invention, or their ability to bind to the several retinoid receptor subtypes, respectively, are described in published PCT Application No. WO WO93/11755 (particularly on pages 30-33 and 37-41) published on Jun. 24, 1993, the specification of which is also incorporated herein by reference. A detailed experimental procedure for holoreceptor transactivations has been described by Heyman et al. Cell 68, 397-406, (1992); Allegretto et al. J. Biol. Chem. 268, 26625-26633, and Mangelsdorf et al. The Retinoids: Biology, Chemistry and Medicine, pp 319-349, Raven Press Ltd., New York, which are expressly incorporated herein by reference. The results obtained in this assay are expressed in EC50 numbers, as they are also in the chimeric receptor transactivation assay. The results of the ligand binding assay are expressed in Ki numbers. (See Cheng et al. Biochemical Pharmacology Vol. 22 pp 3099-3108, expressly incorporated herein by reference.)
(§2) Generally speaking, in the tables disclosing the results of transactivation and binding assays the numbers in parentheses indicate efficacy as a percentage compared to the standard compound, (2E,4E,1′S,2′S)-3-methyl-5-[2′-methyl-2′-(5,5,8,8-tetramethyl-5,6,7,8-tetrahydro-naphthalen-2-yl)cyclopropyl]-penta-2,4-dienoic acid and the other numbers indicate the measured EC50 and K; in nanomolar concentration.

RXRγ = target: T2, RXRγ (UniProt P28705); assay: holoreceptor transactivation assay, RXRγ; assay type: cell-based; settings: for EC50: holoreceptor transactivation, read-out: RXR Trans. EC50 γ; for RXR Trans. efficacy (number in parentheses) γ: percentage compared to the standard compound
T2 sequence (P28705 1-463): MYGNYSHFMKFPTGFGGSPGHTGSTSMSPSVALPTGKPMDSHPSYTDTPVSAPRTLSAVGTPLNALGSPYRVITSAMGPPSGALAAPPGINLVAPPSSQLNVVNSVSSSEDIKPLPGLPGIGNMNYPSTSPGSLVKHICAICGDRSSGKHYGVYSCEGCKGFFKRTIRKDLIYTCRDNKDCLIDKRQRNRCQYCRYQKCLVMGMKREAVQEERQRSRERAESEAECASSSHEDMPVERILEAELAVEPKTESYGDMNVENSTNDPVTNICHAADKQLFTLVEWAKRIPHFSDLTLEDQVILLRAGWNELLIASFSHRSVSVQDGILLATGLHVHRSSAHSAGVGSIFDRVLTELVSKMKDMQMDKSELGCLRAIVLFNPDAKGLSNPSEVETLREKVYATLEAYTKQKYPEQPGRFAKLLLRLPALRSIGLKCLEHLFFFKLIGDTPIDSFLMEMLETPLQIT
Source text: as §1
(§3) Efficacy in a transactivation assay is expressed as a percentage of the maximum potency attained by the compound compared to a standard which, in this case, is the compound named (2E,4E,1′S,2′S)-3-methyl-5-[2′-methyl-2′-(5,5,8,8-tetramethyl-5,6,7,8-tetrahydro-naphthalen-2-yl)-cyclopropyl]-penta-2,4-dienoic acid. This standard compound is described in U.S. Pat. No. 6,114,533.
(§4) The specification of this application for patent is organized in several sections in accordance with structural Formulas A through F each of which discloses a group of preferred compounds within the scope of the invention. Tables that disclose the activity of certain exemplary compounds of the invention in the above-described RXR receptor transactivation and binding assays are found in the corresponding sections. […] The transactivation data pertaining to the activation of RXR receptors were obtained in the holoreceptor assay.
as §2

RXRα [2] = target: T1, RXRα; assay: holoreceptor transactivation assay, RXRα; assay type: cell-based; settings: for EC50: holoreceptor transactivation, read-out: RXR Trans. EC50 α; for Emax: percentage compared to the standard compound, read-out: RXR Trans. efficacy (number in parentheses) α
Source text: as §1, §3, §4, §2

RXRβ = target: T3, RXRβ (UniProt P28704); assay: ligand binding assay, RXRβ; settings: read-out: RXR Bind Ki β
T3 sequence (P28704 1-520): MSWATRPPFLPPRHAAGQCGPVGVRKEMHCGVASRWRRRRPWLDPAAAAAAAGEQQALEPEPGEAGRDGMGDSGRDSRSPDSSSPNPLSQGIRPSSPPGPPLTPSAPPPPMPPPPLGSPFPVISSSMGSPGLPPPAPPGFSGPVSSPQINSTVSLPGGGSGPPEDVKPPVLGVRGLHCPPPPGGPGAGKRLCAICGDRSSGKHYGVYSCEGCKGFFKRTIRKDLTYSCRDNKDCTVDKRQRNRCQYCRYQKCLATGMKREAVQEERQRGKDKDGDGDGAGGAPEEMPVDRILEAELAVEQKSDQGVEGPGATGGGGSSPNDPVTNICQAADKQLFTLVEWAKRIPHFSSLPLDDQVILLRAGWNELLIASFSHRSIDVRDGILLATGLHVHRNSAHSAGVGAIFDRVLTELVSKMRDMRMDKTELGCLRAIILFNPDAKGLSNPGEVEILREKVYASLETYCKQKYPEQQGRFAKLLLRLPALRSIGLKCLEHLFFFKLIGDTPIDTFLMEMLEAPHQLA
Source text: as §1, §2

| Structure (SMILES) | Ki (RXRα [1]) | EC50 (RXRγ) | RXR Trans. efficacy (number in parentheses) γ (RXRγ) | EC50 (RXRα [2]) | Emax (RXRα [2]) | Ki (RXRβ) |
| --- | --- | --- | --- | --- | --- | --- |
| COc1cc2c(cc1\C(C)=C(F)/C=C/C(C)=C/C(=O)O)C(C(C)C)=CC(C)(C)O2 [Compound 121, (2E,4E,6E)-6-Fluoro-7-(4-isopropyl-7-methoxy-2,2-dimethyl-2H-chromen-6-yl)-3-methyl-octa-2,4,6-trienoic acid] | 7 nM | 10 nM | 79% | 5 nM | 59% | 33 nM |
| COc1cc2c(cc1\C(C)=C(F)/C=C/C(C)=C/C(=O)O)C(C(C)(C)C)=CC(C)(C)O2 [Compound 122, 7-(4-tert-Butyl-7-methoxy-2,2-dimethyl-2H-chromen-6-yl)-6-fluoro-3-methyl-octa-2E,4E,6E-trienoic acid] | 11 nM | 9 nM | 52% | 5 nM | 36% | 110 nM |
| CCOc1cc2c(cc1\C(C)=C(F)/C=C/C(C)=C/C(=O)O)C(CC)=CC(C)(C)O2 [Compound 123, 7-(7-Ethoxy-4-ethyl-2,2-dimethyl-2H-chromen-6-yl)-6-fluoro-3-methyl-octa-2E,4E,6E-trienoic acid] | 833 nM | > 1000 nM | – | > 10000 nM | – | > 10000 nM |
| CC/C(=C(F)/C=C/C(C)=C/C(=O)O)c1cc2c(cc1OC)OC(C)(C)C=C2C [Compound 129, 6-Fluoro-7-(7-methoxy-2,2,4-trimethyl-2H-chromen-6-yl)-3-methyl-nona-2E,4E,6E-trienoic acid] | 69 nM | 53 nM | 108% | 44 nM | 99% | 625 nM |
| CC/C(=C(F)/C=C/C(C)=C/C(=O)O)c1cc2c(cc1OC)OC(C)(C)C=C2C(C)C [Compound 130, 6-Fluoro-7-(4-isopropyl-7-methoxy-2,2-dimethyl-2H-chromen-6-yl)-3-methyl-nona-2E,4E,6E-trienoic acid] | 3 nM | 0.6 nM | 86% | 0.5 nM | 80% | 24 nM |
| CC/C(=C(F)/C=C/C(C)=C/C(=O)O)c1cc2c(cc1OC)OC(C)(C)C=C2C(C)(C)C [Compound 131, 7-(4-tert-Butyl-7-methoxy-2,2-dimethyl-2H-chromen-6-yl)-6-fluoro-3-methyl-nona-2E,4E,6E-trienoic acid] | 10 nM | 8 nM | 53% | 6 nM | 37% | 94 nM |
| CCOc1cc2c(cc1\C(CC)=C(F)/C=C/C(C)=C/C(=O)O)C(C)=CC(C)(C)O2 [Compound 132, 7-(7-Ethoxy-2,2,4-trimethyl-2H-chromen-6-yl)-6-fluoro-3-methyl-nona-2E,4E,6E-trienoic acid] | 124 nM | > 1000 nM | – | 759 nM | 15% | 1100 nM |
| COc1c(\C(C)=C(F)/C=C/C(C)=C/C(=O)O)cc2c(c1Cl)OC(C)(C)C=C2C(C)C [Compound 170, 7-(8-Chloro-4-isopropyl-7-methoxy-2,2-dimethyl-2H-chromen-6-yl)-6-fluoro-3-methyl-octa-2E,4E,6E-trienoic acid] | 2 nM | 0.2 nM | 109% | 0.8 nM | 86% | 7 nM |
| CC/C(=C(F)/C=C/C(C)=C/C(=O)O)c1cc2c(c(Cl)c1OC)OC(C)(C)C=C2C(C)C [Compound 171, 7-(8-Chloro-4-isopropyl-7-methoxy-2,2-dimethyl-2H-chromen-6-yl)-6-fluoro-3-methyl-nona-2E,4E,6E-trienoic acid] | 1.3 nM | 0.04 nM | 95% | 0.02 nM | 87% | 12 nM |
| CCOc1c(\C(C)=C(F)/C=C/C(C)=C/C(=O)O)cc2c(c1Cl)OC(C)(C)C=C2C(C)C [Compound 172, 7-(8-Chloro-4-isopropyl-7-ethoxy-2,2-dimethyl-2H-chromen-6-yl)-6-fluoro-3-methyl-octa-2E,4E,6E-trienoic acid] | 10 nM | 10 nM | 46% | 5.4 nM | 52% | 85 nM |
| CCOc1c(\C(CC)=C(F)/C=C/C(C)=C/C(=O)O)cc2c(c1Cl)OC(C)(C)C=C2C(C)C [Compound 173] | 2 nM | 6 nM | 10% | 4.8 nM | 18% | 36 nM |
| CC(/C=C/C(F)=C(/C)c1cc2c(c(Cl)c1OC(C)C)OC(C)(C)C=C2C(C)C)=C\C(=O)O [Compound 174] | 29 nM | 114 nM | 6% | 59 nM | 8% | 319 nM |
| CCOc1cc2c(cc1\C(=C/C=C/C(C)=C/C(=O)O)CC)C(C)=CCC2(C)C [Compound A-16, 7-(3-Ethoxy-5,5,8-trimethyl-5,6-dihydronaphthalen-2-yl)-3-methyl-nona-2E,4E,6Z-trienoic acid] | 8.7 nM | 32 nM | 26% | 12 nM | 39% | 49 nM |
| CCOc1cc2c(cc1\C(C)=C/C=C/C(C)=C/C(=O)O)C(C(C)(C)C)=CCC2(C)C [Compound A-17, 7-(8-tert-Butyl-3-ethyloxy-5,5-dimethyl-5,6-dihydronaphthalen-2-yl)-3-methyl-octa-2E,4E,6Z-trienoic acid] | 2.4 nM | 0.9 nM | 73% | 0.6 nM | 85% | 16 nM |
